We go through 26 compounds from patent publication US5869675A, “Lactacystin derivatives” (The Kitasato Institute, priority 1994, dated 1999).

Molecules are shown by their SMILES. Read-outs that look alike come from different tables or passages of the source.

The test system of data set [1] is Neuro 2A cells. The data set can be described thus: Selective toxicity (ratio of cytotoxicity/minimum effective dose). Format: cell-based, mouse. From the text:
2. No specific test method for selective toxicity of the compounds is known, therefore the selective toxicity is defined as the ratio of cytotoxicity/minimum effective dose.

Data set [2] in a line: Cytotoxic action on Neuro 2A cells. Format: cell-based. The settings on record: mouse, no attached cells observed in more than 2/3 of the whole cells, read-out: Cytotoxicity (B). The method, then: (§1) Morphological changes of Neuro 2A cells are observed according to the method of Baglioni et al. [J. Biol. Chem., 266: 18620 (1991)].
Neuro 2A cells were plated at a density of 1×10^4 cells/cm^2 in a 24-hole plate, and cultured in MEM-H with 10% FBS. On the next day, lactacystin or lactacystin derivatives were added at the concentration of 0.05-100 μM, and morphological changes of the cells with time were observed by phase contrast microscopy.

In data set [3] the test system is Neuro 2A cells. The data set can be described thus: Activity of neuritogenesis (bipolar outgrowth of neurites) in Neuro 2A cells, minimum effective dose. It counts as cell-based, mouse. As to conditions: Mus musculus, N2a, read-out: Minimum effective dose (A). The method, then:
as §1
Neuro 2A cells were plated at a density of 1×10^4 cells/cm^2 in a 24-hole plate, and cultured in MEM-H with 10% FBS.

[4] abbreviates: Neuro 2A cells, concentration in which approximately 20% of whole cells showed bipolar outgrowth of neurites.

Consider `CC(C)[C@H](O)[C@@]1(C(=O)SCCN)NC(=O)[C@H](C)[C@@H]1O` [Example 4, des-N-acetyldescarboxylactacystin], for which the “Selective toxicity (B/A)” value with Neuro 2A cells [1] came to 8. Further, in data set [2], the MCC is 25 µM. In the data set on Neuro 2A cells [3] (setting [4]), the minimal effective concentration was determined as 3.12 µM.

In the case of `CC(C)[C@H](O)[C@@]1(C(=O)SCCC(N)C(=O)O)NC(=O)[C@H](C)[C@@H]1O` (stereo partly drawn) [Example 24], the “Selective toxicity (B/A)” value in the data set on Neuro 2A cells [1] amounted to 16. The MCC in data set [2] was 25 µM. Moreover, in the data set on Neuro 2A cells [3] (setting [4]), the minimal effective concentration is 1.56 µM.

Consider `CCCCSC(=O)[C@]1([C@@H](O)C(C)C)NC(=O)[C@H](C)[C@@H]1O` [Example 10, 3-hydroxy-2-(1-hydroxy-2-methylpropyl)-4-methyl-5-oxo-2-pyrrolidine-butanethiocarboxylate], for which the “Selective toxicity (B/A)” value with Neuro 2A cells [1] was determined as 31. Moreover, the MCC in data set [2] stood at 12.5 µM. For the same compound, the minimal effective concentration in the data set with Neuro 2A cells [3] (setting [4]) is 0.4 µM.

`CC(SC(=O)[C@]1([C@@H](O)C(C)C)NC(=O)[C@H](C)[C@@H]1O)C(=O)NCC(=O)O` (stereo partly drawn) [Example 25, 2-S-propionylglycine-3-hydroxy-2-(1-hydroxy-2-methylpropyl)-4-methyl-5-oxo-2-pyrrolidinecarboxylate]: in the data set with Neuro 2A cells [1], the “Selective toxicity (B/A)” value came out at 8. For the same compound, the MCC in data set [2] worked out at 12.5 µM. For the same compound, in the data set with Neuro 2A cells [3] (setting [4]), the minimal effective concentration was 1.56 µM.

In the case of `CC(C)[C@H](O)[C@@]1(C(=O)SCCO)NC(=O)[C@H](C)[C@@H]1O` [Example 14, 3-hydroxy-2-(1-hydroxy-2-methylpropyl)-4-methyl-5-oxo-2-pyrrolidine-2-hydroxyethanethiocarboxylate], the “Selective toxicity (B/A)” value in the data set on Neuro 2A cells [1] is on record as 8. The MCC in data set [2] was found to be 25 µM. In addition, in the data set with Neuro 2A cells [3] (setting [4]), the minimal effective concentration worked out at 3.12 µM.

Regarding `COC(=O)CCSC(=O)[C@]1([C@@H](O)C(C)C)NC(=O)[C@H](C)[C@@H]1O` [Example 21, 3-hydroxy-2-(1-hydroxy-2-methylpropyl)-4-methyl-5-oxo-2-pyrrolidine-methoxycarbonylethylthiocarboxylate], the “Selective toxicity (B/A)” value with Neuro 2A cells [1] came out at 8. In addition, in data set [2], the MCC was 1.56 µM. For the same compound, in the data set with Neuro 2A cells [3] (setting [4]), the minimal effective concentration was determined as 0.2 µM.

For the compound `COC(=O)CSC(=O)[C@]1([C@@H](O)C(C)C)NC(=O)[C@H](C)[C@@H]1O` [Example 20, 3-hydroxy-2-(1-hydroxy-2-methylpropyl)-4-methyl-5-oxo-2-pyrrolidine-methoxycarbonylthiocarboxylate], the “Selective toxicity (B/A)” value in the data set on Neuro 2A cells [1] was 16. For the same compound, the MCC in data set [2] is 12.5 µM. Also, the minimal effective concentration in the data set with Neuro 2A cells [3] (setting [4]) came to 0.8 µM.

For the compound `CC(C)[C@H](O)[C@@]1(C(=O)Sc2ccncc2)NC(=O)[C@H](C)[C@@H]1O` [Example 23, 3-hydroxy-2-(1-hydroxy-2-methylpropyl)-4-methyl-5-oxo-2-pyrrolidine-4-pyridylthiocarboxylate], the “Selective toxicity (B/A)” value with Neuro 2A cells [1] came out at 16. In data set [2], the MCC was found to be 12.5 µM. The minimal effective concentration with Neuro 2A cells [3] (setting [4]) stood at 0.8 µM.

Turning to `CCCSC(=O)[C@]1([C@@H](O)C(C)C)NC(=O)[C@H](C)[C@@H]1O` [Example 8], the “Selective toxicity (B/A)” value in the data set on Neuro 2A cells [1] is given as 16. The MCC in data set [2] turned out to be 3.12 µM. For the same compound, in the data set on Neuro 2A cells [3] (setting [4]), the minimal effective concentration amounted to 0.2 µM.

Turning to `CCC(C)SC(=O)[C@]1([C@@H](O)C(C)C)NC(=O)[C@H](C)[C@@H]1O` (stereo partly drawn) [Example 11, 3-hydroxy-2-(1-hydroxy-2-methylpropyl)-4-methyl-5-oxo-2-pyrrolidine-1-methyl-1-propanethiocarboxylate], the “Selective toxicity (B/A)” value with Neuro 2A cells [1] came to 31. Besides, in data set [2], the MCC stood at 12.5 µM. In addition, the minimal effective concentration with Neuro 2A cells [3] (setting [4]) is 0.4 µM.

In the case of `COC(=O)[C@]1([C@@H](O)C(C)C)NC(=O)[C@H](C)[C@@H]1O` [Example 1, .tau.-lactam methyl ester], the “Selective toxicity (B/A)” value in the data set with Neuro 2A cells [1] was 8. Also, in data set [2], the MCC amounted to 12.5 µM. For the same compound, in the data set with Neuro 2A cells [3] (setting [4]), the minimal effective concentration came out at 1.56 µM.

With `CCCCCSC(=O)[C@]1([C@@H](O)C(C)C)NC(=O)[C@H](C)[C@@H]1O` [Example 12, 3-hydroxy-2-(1-hydroxy-2-methylpropyl)-4-methyl-5-oxo-2-pyrrolidine-1-pentanethiocarboxylate], the “Selective toxicity (B/A)” value in the data set on Neuro 2A cells [1] is reported as 16. Also, the MCC in data set [2] is 12.5 µM. In the data set with Neuro 2A cells [3] (setting [4]), the minimal effective concentration stood at 0.8 µM.

Take `CC(C)[C@H](O)[C@@]1(C(=O)SCC(=O)O)NC(=O)[C@H](C)[C@@H]1O` [Example 19, 3-hydroxy-2-(1-hydroxy-2-methylpropyl)-4-methyl-5-oxo-2-pyrrolidine-1-carboxymethylthiocarboxylate]: the “Selective toxicity (B/A)” value in the data set on Neuro 2A cells [1] is recorded as 31. Besides, the MCC in data set [2] turned out to be 12.5 µM. In the data set with Neuro 2A cells [3] (setting [4]), the minimal effective concentration was 0.4 µM.

For the compound `CC(C)[C@H](O)[C@@]1(C(=O)SCCN(C)C)NC(=O)[C@H](C)[C@@H]1O` [Example 18, 3-hydroxy-2-(1-hydroxy-2-methylpropyl)-4-methyl-5-oxo-2-pyrrolidine-2-N-dimethyl-ethanethiocarboxylate], the “Selective toxicity (B/A)” value in the data set with Neuro 2A cells [1] was found to be 31. Besides, the MCC in data set [2] stood at 6.25 µM. The minimal effective concentration in the data set with Neuro 2A cells [3] (setting [4]) turned out to be 0.2 µM.

As for `CC(C)[C@H](O)[C@@]1(C(=O)Sc2ccc(O)cc2)NC(=O)[C@H](C)[C@@H]1O` [Example 16, 3-hydroxy-2-(1-hydroxy-2-methylpropyl)-4-methyl-5-oxo-2-pyrrolidine-4-hydroxyphenylthiocarboxylate], in the data set with Neuro 2A cells [1], the “Selective toxicity (B/A)” value turned out to be 31. Further, the MCC in data set [2] was 12.5 µM. For the same compound, the minimal effective concentration with Neuro 2A cells [3] (setting [4]) worked out at 0.4 µM.

Turning to `CC(C)SC(=O)[C@]1([C@@H](O)C(C)C)NC(=O)[C@H](C)[C@@H]1O` [Example 9, 3-hydroxy-2-(1-hydroxy-2-methylpropyl)-4-methyl-5-oxo-2-pyrrolidine-iso-propanethiocarboxylate], the “Selective toxicity (B/A)” value in the data set on Neuro 2A cells [1] is on record as 31. For the same compound, the MCC in data set [2] is 12.5 µM. Also, the minimal effective concentration in the data set with Neuro 2A cells [3] (setting [4]) was found to be 0.4 µM.

For `CC(C)[C@H](O)[C@@]1(C(=O)SCCC(=O)O)NC(=O)[C@H](C)[C@@H]1O` [Example 2, des-N-acetylaminolactacystin], the “Selective toxicity (B/A)” value in the data set on Neuro 2A cells [1] came out at 8. For the same compound, the MCC in data set [2] worked out at 1.56 µM. Moreover, the minimal effective concentration in the data set on Neuro 2A cells [3] (setting [4]) amounted to 0.2 µM.

For the compound `CC(C)[C@H](O)[C@@]1(C(=O)SCCCO)NC(=O)[C@H](C)[C@@H]1O` [Example 15, 3-hydroxy-2-(1-hydroxy-2-methylpropyl)-4-methyl-5-oxo-2-pyrrolidine-3-hydroxypropanethiocarboxylate], the “Selective toxicity (B/A)” value in the data set with Neuro 2A cells [1] is recorded as 31. Besides, the MCC in data set [2] worked out at 12.5 µM. Further, in the data set on Neuro 2A cells [3] (setting [4]), the minimal effective concentration is 0.4 µM.

Regarding `CNCCSC(=O)[C@]1([C@@H](O)C(C)C)NC(=O)[C@H](C)[C@@H]1O` [Example 17, 3-hydroxy-2-(1-hydroxy-2-methylpropyl)-4-methyl-5-oxo-2-pyrrolidine-2-N-methylethanethiocarboxylate], the “Selective toxicity (B/A)” value with Neuro 2A cells [1] was determined as 8. In addition, the MCC in data set [2] worked out at 6.25 µM. Also, the minimal effective concentration in the data set with Neuro 2A cells [3] (setting [4]) amounted to 0.8 µM.

As for `CC(C)[C@H](O)[C@@]1(C(=O)SC[C@H](NC(=O)CC[C@H](N)C(=O)O)C(=O)NCC(=O)O)NC(=O)[C@H](C)[C@@H]1O` [Example 26, glutathione-3-hydroxy-2-(1-hydroxy-2-methylpropyl)-4-methyl-5-oxo-2-pyrrolidinethiocarboxylate], in the data set on Neuro 2A cells [1], the “Selective toxicity (B/A)” value turned out to be 31. The MCC in data set [2] amounted to 25 µM. In addition, the minimal effective concentration with Neuro 2A cells [3] (setting [4]) was found to be 0.8 µM.

`CCSC(=O)[C@]1([C@@H](O)C(C)C)NC(=O)[C@H](C)[C@@H]1O` [Example 7, 3-hydroxy-2-(1-hydroxy-2-methylpropyl)-4-methyl-5-oxo-2-pyrrolidine-ethanethiocarboxylate]: the “Selective toxicity (B/A)” value in the data set on Neuro 2A cells [1] amounted to 8. Further, in data set [2], the MCC is 1.56 µM. Besides, the minimal effective concentration in the data set with Neuro 2A cells [3] (setting [4]) was found to be 0.2 µM.

As to `CC(C)[C@H](O)[C@@]1(C(=O)Sc2ccccn2)NC(=O)[C@H](C)[C@@H]1O` [Example 22, 3-hydroxy-2-(1-hydroxy-2-methylpropyl)-4-methyl-5-oxo-2-pyrrolidine-2-pyridylthiocarboxylate], the “Selective toxicity (B/A)” value in the data set with Neuro 2A cells [1] turned out to be 16. In data set [2], the MCC was 12.5 µM. For the same compound, the minimal effective concentration in the data set with Neuro 2A cells [3] (setting [4]) was 0.8 µM.

On to `COC(=O)[C@H](CSC(=O)[C@]1([C@@H](O)C(C)C)NC(=O)[C@H](C)[C@@H]1O)NC(C)=O` [Example 5, lactacystin methyl ester], for which the “Selective toxicity (B/A)” value in the data set with Neuro 2A cells [1] is 8. In addition, the MCC in data set [2] is 6.25 µM. Further, the minimal effective concentration in the data set with Neuro 2A cells [3] (setting [4]) came out at 0.78 µM.

For the compound `CC(C)[C@H](O)[C@@]1(C(=O)Sc2ccccc2)NC(=O)[C@H](C)[C@@H]1O` [Example 13, 3-hydroxy-2-(1-hydroxy-2-methylpropyl)-4-methyl-5-oxo-2-pyrrolidine-phenythiocarboxylate], in the data set with Neuro 2A cells [1], the “Selective toxicity (B/A)” value amounted to 16. Besides, the MCC in data set [2] turned out to be 12.5 µM. Besides, in the data set with Neuro 2A cells [3], the minimal effective concentration was 0.8 µM.

As for `CCOC(=O)CCSC(=O)[C@]1([C@@H](O)C(C)C)NC(=O)[C@H](C)[C@@H]1O` [Example 3, des-N-acetylaminolactacystin ethyl ester], in the data set on Neuro 2A cells [1], the “Selective toxicity (B/A)” value is on record as 16. The MCC in data set [2] came to 3.12 µM. Moreover, the minimal effective concentration in the data set on Neuro 2A cells [3] (setting [4]) is 0.2 µM.

As to `C=CCOC(=O)[C@H](CSC(=O)[C@]1([C@@H](O)C(C)C)NC(=O)[C@H](C)[C@@H]1O)NC(C)=O` [Example 6, lactacystin allyl ester], the “Selective toxicity (B/A)” value in the data set on Neuro 2A cells [1] came to 31. Besides, in data set [2], the MCC amounted to 6.25 µM. In addition, the minimal effective concentration with Neuro 2A cells [3] (setting [4]) is 0.2 µM.
